Here are results for three molecules from ChEMBL document CHEMBL5724914, “Linking interpersonal differences in gut microbiota composition and drug biotransformation activity” (2024).

Data set [1] can be described thus: The drug is tested on Z-017 corresponding to mouse gut metagenome with ENA study accession number: PRJEB37062 and ENA sample accession number: ERS12561816 for biotransformation under anaerobic condition. The drug concentrations were measured over 9 timepoints collected between 0 and 24 hours of incubation by liquid-chromatography-coupled mass spectrometry (LC–MS). The conditions noted are these: 2 µM.

A short description of data set [2]: The drug is tested on Z-007 corresponding to rat gut metagenome with ENA study accession number: PRJEB37062 and ENA sample accession number: ERS12561807 for biotransformation under anaerobic condition. The drug concentrations were measured over 9 timepoints collected between 0 and 24 hours of incubation by liquid-chromatography-coupled mass spectrometry (LC–MS). The conditions noted are these: 2 µM.

The conditions of data set [3]: human gut metagenome, 24 h, 2 µM.
Data set [4] in a line: The drug is tested on Z-019 corresponding to rat gut metagenome with ENA study accession number: PRJEB37062 and ENA sample accession number: ERS12561818 for biotransformation under anaerobic condition. The drug concentrations were measured over 9 timepoints collected between 0 and 24 hours of incubation by liquid-chromatography-coupled mass spectrometry (LC–MS). The note with it: 2 µM.

For data set [5] the following is noted: human gut metagenome, 24 h, 2 µM. This is another data set of the same source.
A short description of data set [6]: The drug is tested on WLS-073 corresponding to human gut metagenome with ENA study accession number: PRJEB37062 and ENA sample accession number: ERS12561749 for biotransformation under anaerobic condition. The drug concentrations were measured over 9 timepoints collected between 0 and 24 hours of incubation by liquid-chromatography-coupled mass spectrometry (LC–MS). The conditions noted are these: 2 µM.

For data set [7] the following is noted: human gut metagenome, 24 h, 2 µM. This is another data set of the same source.
For data set [8] the following is noted: human gut metagenome, 24 h, 2 µM. The source holds these as a separate data set.
The conditions of data set [9]: human gut metagenome, 24 h, 2 µM. This is another data set of the same source.
For data set [10] the following is noted: human gut metagenome, 24 h, 2 µM. The source holds these as a separate data set.
For data set [11] the following is noted: human gut metagenome, 24 h, 2 µM. This is another data set of the same source.
Data set [12] in a line: The drug is tested on WLS-069 corresponding to human gut metagenome with ENA study accession number: PRJEB37062 and ENA sample accession number: ERS12561748 for biotransformation under anaerobic condition. The drug concentrations were measured over 9 timepoints collected between 0 and 24 hours of incubation by liquid-chromatography-coupled mass spectrometry (LC–MS). The note with it: 2 µM.

The nature of data set [13]: The drug is tested on WLS-098 corresponding to human gut metagenome with ENA study accession number: PRJEB37062 and ENA sample accession number: ERS12561754 for biotransformation under anaerobic condition. The drug concentrations were measured over 9 timepoints collected between 0 and 24 hours of incubation by liquid-chromatography-coupled mass spectrometry (LC–MS). The note with it: 2 µM.

For data set [14] the following is noted: human gut metagenome, 24 h, 2 µM. This is another data set of the same source.
The conditions of data set [15]: human gut metagenome, 24 h, 2 µM. The source holds these as a separate data set.
The conditions of data set [16]: human gut metagenome, 24 h, 2 µM. This is another data set of the same source.
A short description of data set [17]: The drug is tested on WLS-240 corresponding to human gut metagenome with ENA study accession number: PRJEB37062 and ENA sample accession number: ERS12561773 for biotransformation under anaerobic condition. The drug concentrations were measured over 9 timepoints collected between 0 and 24 hours of incubation by liquid-chromatography-coupled mass spectrometry (LC–MS). The conditions noted are these: 2 µM.

The conditions of data set [18]: human gut metagenome, 24 h, 2 µM. This is another data set of the same source.
Data set [19] can be described thus: The drug is tested on Z-002 corresponding to rabbit gut metagenome with ENA study accession number: PRJEB37062 and ENA sample accession number: ERS12561802 for biotransformation under anaerobic condition. The drug concentrations were measured over 9 timepoints collected between 0 and 24 hours of incubation by liquid-chromatography-coupled mass spectrometry (LC–MS). The note with it: 2 µM.

Data set [20] is described as follows: The drug is tested on Z-003 corresponding to pig gut metagenome with ENA study accession number: PRJEB37062 and ENA sample accession number: ERS12561803 for biotransformation under anaerobic condition. The drug concentrations were measured over 9 timepoints collected between 0 and 24 hours of incubation by liquid-chromatography-coupled mass spectrometry (LC–MS). The conditions noted are these: 2 µM.
Also: call rule not given here.

As for `CCOC(=O)C1=C[C@]2(CC)CCCN3CCc4c(n1c1ccccc41)[C@@H]32` [VINPOCETINE], the “Bacterial Biotransformation” value was “Compound NOT metabolized” in data set [1]; “Compound NOT metabolized” in [2]; “Compound NOT metabolized” in data set [3]; “Compound NOT metabolized” in [4]; “Compound metabolized” in data set [5]; “Compound metabolized” in data set [6]. For the same molecule, the “Bacterial Biotransformation” value in [7] is on record as “Compound metabolized”; in data set [8], “Compound metabolized”; in [9] it was “Compound metabolized”; in data set [10], “Compound metabolized”; in data set [11], “Compound NOT metabolized”; in data set [12], “Compound metabolized”. In addition, the “Bacterial Biotransformation” value in data set [13] is on record as “Compound metabolized”; in [14] it was “Compound NOT metabolized”; in data set [15] it was “Compound metabolized”; in data set [16], “Compound metabolized”; in data set [17], “Compound metabolized”; in data set [18], “Compound metabolized”. For the same molecule, the “Bacterial Biotransformation” value in data set [19] and in data set [20] was “Compound metabolized” in each case.
Take `CCN(CC)C(=O)C1(c2ccccc2)CC1CN` (stereo not given): the “Bacterial Biotransformation” value in data set [1], in [2], in data set [3], in data set [4], in data set [5] and in [6] was “Compound NOT metabolized” in each case. For the same molecule, the “Bacterial Biotransformation” value in [7], in data set [8], in data set [9], in [10], in data set [11] and in data set [12] was “Compound NOT metabolized” each time. In addition, the “Bacterial Biotransformation” value in data set [13], in [14], in data set [15], in data set [16], in data set [17] and in data set [18] was “Compound NOT metabolized” in each case. In addition, the “Bacterial Biotransformation” value in [19] and in data set [20] was “Compound NOT metabolized” throughout.
`CC(N)C12CC3CC(CC(C3)C1)C2` (stereo not given) [RIMANTADINE]: the “Bacterial Biotransformation” value in [1], in data set [2], in [3], in data set [4], in data set [5] and in data set [6] was “Compound NOT metabolized” each time. For the same molecule, the “Bacterial Biotransformation” value in [7], in data set [8], in data set [9], in data set [10], in data set [11] and in data set [12] was “Compound NOT metabolized” throughout. Besides, the “Bacterial Biotransformation” value in data set [13], in data set [14], in [15], in data set [16], in data set [17] and in [18] was “Compound NOT metabolized” in each case. In addition, the “Bacterial Biotransformation” value in data set [19] and in data set [20] was “Compound NOT metabolized” throughout.
